Laboratory results taken from ChEMBL document CHEMBL1152499, “Novel l-adenosine analogs as cardioprotective agents” (2009).
The source made the active and inactive calls. The rule behind the calls is not given here.

Tests used:
Heart [1] = test: Cardioprotective activity in isolated Langendorff ischemia-reperfused Swiss Webster mouse heart assessed as total tissue necrotic area; type: functional
Heart [2] = test: Cardioprotective activity in isolated Langendorff ischemia-reperfused Swiss Webster mouse heart assessed as increase in functional recovery of contractility; type: tissue-based
Heart [3] = test: Cardioprotective activity in isolated Langendorff ischemia-reperfused Swiss Webster mouse heart assessed as prolongation of time to ischemic contracture; type: functional

Structure (SMILES) | Activity (Heart [1]) | Activity (Heart [2]) | Activity (Heart [3])
CNC(=O)[C@@H]1O[C@H](n2cnc3c(NC)ncnc32)[C@@H](O)[C@H]1N | inactive | inactive | inactive
CN(C)c1ncnc2c1ncn2[C@H]1O[C@@H](CO)[C@H](N)[C@@H]1O | 19.1% | Active | 14.5 min
Nc1ncnc2c1ncn2[C@@H]1O[C@H](CO)[C@@H](O)[C@H]1O [ADENOSINE] | 11.5% | – | 13.6 min
